What all share (assay): NCI-60 cell line screen, 48 h
For assay [1], the system named is MDA-MB-435.
For assay [2], the system named is OVCAR-8 ovarian.
Assay [3] has as its system MCF7 breast.
The subject of assay [4] is MDA-MB-231 breast.
Assay [5] concerns HT29 colon.
Assay [6] concerns CAKI-1 renal.
The subject of assay [7] is IGROV1 ovarian.
The subject of assay [8] is NCI-H23 lung.
Assay [9] concerns SNB-19 CNS.
The subject of assay [10] is SF-539 CNS.

Values joined by “and” are separate entries in the source; they are usually repeats but may differ in a detail not shown here. Equal values may be shown once.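 Test compounds were applied to cells in 96-well plates for 48 hours at 5 doses. Abbreviation: GI50, concentration required for 50% inhibition of growth. TGI is the concentration that stops growth completely.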 Where only a bound is given, the exact number is not on record here.

Take `CCN(CC)Cc1cc(Nc2nc(NC3CCC(N(C)C)CC3)c3ccccc3n2)ccc1OC` (stereo unspecified): the GI50 in assay [1] is 3050 nM; in assay [2] it was 3.08 µM; in [3], 3.83 µM; in assay [4], 1700 nM; in assay [5], 2420 nM; in assay [6], 30.9 µM. Further, the GI50 was 12.8 µM in assay [7], 6.9 µM in assay [8], 8.6 µM in assay [9] and 3300 nM in [10]. Besides, the TGI in assay [1] was 11.9 µM; in assay [2], 13.2 µM; in assay [3] it was 14.6 µM; in [4], 6.09 µM; in assay [5], 7.11 µM; in assay [6] it was over 100 µM. For the same compound, the TGI amounted to 34.3 µM in assay [7], 21.9 µM in assay [8], 22.6 µM in assay [9] and 13.3 µM in [10].
For `Cc1cccc(NC(=O)c2sc3nc4c(cc3c2N)C(=O)CCC4)c1`, the GI50 in [1] is 30.2 nM; in assay [2], 1.23 µM; in [3], 0.157 µM; in [4] it was 585 nM; in [5] it was 223 nM; in [6], 0.368 µM. Besides, the GI50 was 0.68 µM in assay [7], 0.67 µM in assay [8], 0.464 µM in [9] and 199 nM in [10]. In addition, the TGI in assay [1] was 0.126 µM; in [2], over 91.9 µM; in assay [3], over 100 µM; in assay [4] it was over 44.5 µM; in assay [5] it was over 20.1 µM; in [6], over 100 µM. Also, the TGI was over 60.8 µM in [7], over 60.4 µM in assay [8], over 100 µM in [9] and 0.616 µM in assay [10].
Turning to `CC(=O)ON1CCCC(P(=O)(OCOC(=O)C(C)(C)C)OCOC(=O)C(C)(C)C)C1=O` (stereo unspecified), the GI50 in assay [1] was 2020 nM; in [2] it was 0.324 µM; in assay [3] it was 0.4 µM; in assay [4] it was 446 nM; in assay [5] it was 305 nM; in assay [6] it was 0.712 µM. Moreover, the GI50 was 0.374 µM in [7], 0.91 µM in [8], 0.583 µM in assay [9] and 1110 nM in assay [10]. Also, the TGI in assay [1] amounted to 15 µM; in [3] it was 2 µM; in assay [4], 5.04 µM; in [5] it was 3.68 µM; in assay [6], 20.4 µM; in [7] it was 1.84 µM. Besides, the TGI in assay [8] turned out to be 4.25 µM; in assay [9], 4.74 µM; in [10], 5.8 µM.
On to `COC1N(C2CC(O)C(CO)O2)C(=O)NC(=O)C1(F)Br` (stereo unspecified), for which the TGI was over 100 µM in assay [1]; 50 µM and > 100 µM in assay [2]; over 100 µM in assay [3]; over 100 µM in assay [4]; 50 µM and > 100 µM in [5]; 50 µM and > 100 µM in assay [6]. For the same compound, the TGI in assay [7] was over 100 µM; in [8] it was 50 µM and > 100 µM; in [9] it was 50 µM and > 100 µM; in assay [10], 50 µM. Moreover, the GI50 was 22.5 µM in [2]; 14900 nM in assay [5]; 24.9 µM in assay [6]; over 50 µM in [7]; 13.3 µM in assay [8]; 26.6 µM in [9]. Also, the GI50 in [10] was 6800 nM.
On to `O=C1/C(=C/c2ccc(Cl)c(Cl)c2)CN(C(=O)CCN2CCC(=NO)CC2)C/C1=C\c1ccc(Cl)c(Cl)c1`, for which the GI50 in [1] was 827 nM; in [2] it was 0.651 µM; in [3], 0.333 µM; in [4] it was 616 nM; in [5] it was 328 nM; in [6], 0.584 µM. Besides, the GI50 in assay [7] is 0.534 µM; in assay [8] it was 1.04 µM; in assay [9] it was 0.599 µM; in assay [10], 753 nM. The TGI in assay [1] came out at 2.12 µM; in assay [2], 2.62 µM; in assay [3], 1.74 µM; in [4], 1.85 µM; in assay [5], 1.25 µM; in assay [6] it was 1.78 µM. The TGI in [7] came to 1.41 µM; in [8] it was 3.01 µM; in assay [9], 1.8 µM; in assay [10], 1.97 µM.
Turning to `O=C1CC(c2ccccc2)Oc2ccccc21` (stereo unspecified), the TGI in assay [1] was over 100 µM; in [2], over 100 µM; in assay [3] it was over 100 µM; in assay [4], 94 µM; in assay [5], 59.7 µM; in assay [6] it was over 100 µM. Besides, the TGI in assay [7] is over 100 µM; in assay [8], 45.5 µM; in assay [9], 83.4 µM; in assay [10] it was 55 µM.
Take `CCn1c2c(c3ccccc3c1=O)C(=O)c1ccccc1-2`: the TGI in assay [1], in assay [2], in [3], in assay [4], in assay [5] and in assay [6] was over 100 µM throughout. For the same compound, the TGI in [7] is over 100 µM; in [8], over 100 µM; in [9], over 100 µM; in assay [10], 39.7 µM.
For the compound `CC1(C)OC[C@@H]([C@@]2(CO[Si](c3ccccc3)(c3ccccc3)C(C)(C)C)CC=CC(=O)O2)O1`, the GI50 was 4980 nM in [1]; 5.05 µM in assay [2]; 4.83 µM in assay [3]; 20600 nM in assay [4]; 7970 nM in assay [5]; 25.9 µM in [6]. In addition, the GI50 in assay [7] was 5.42 µM; in assay [8], 10.2 µM; in assay [9], 15.5 µM; in assay [10], 3680 nM. The TGI is 31.2 µM in assay [1]; over 100 µM in assay [2]; over 100 µM in [3]; over 100 µM in assay [4]; over 100 µM in assay [5]; over 100 µM in [6]. Further, the TGI was determined as 80.2 µM in assay [7], 40.2 µM in assay [8], 97.5 µM in [9] and 9.82 µM in assay [10].
Consider `COc1ccc2c(c1)C(=O)c1c-2c(Nc2ccccc2OC)nc2ccccc12`, for which the GI50 in [1] is over 100000 nM; in assay [2], over 100 µM; in assay [3], over 100 µM; in [4] it was over 100000 nM; in [5] it was over 100000 nM; in [6] it was over 100 µM. Also, the GI50 in [7] is over 100 µM; in [8], over 100 µM; in [9], over 100 µM; in assay [10] it was over 100000 nM. In addition, the TGI in [1], in [2], in assay [3], in [4], in [5] and in [6] was over 100 µM in each case. Besides, the TGI in [7], in [8], in assay [9] and in [10] was over 100 µM each time.
For the compound `Cc1c(C(=N)C(C#N)C#N)c(=N)oc2c1ccc1ccccc12`, the GI50 was 22200 nM in assay [1]; 23.9 µM in [2]; 5.34 µM in assay [3]; 19100 nM in assay [4]; 20500 nM in assay [5]; 7.51 µM in assay [6]. Moreover, the GI50 in assay [7] was 7.76 µM; in assay [8], 16.8 µM; in assay [9], 30.5 µM; in [10], 20600 nM. The TGI in [1] is over 100 µM; in assay [2] it was over 100 µM; in [3] it was over 100 µM; in [4], over 100 µM; in assay [5], 71.1 µM; in assay [6], over 100 µM. Also, the TGI in assay [7] is 53.4 µM; in assay [8], over 100 µM; in assay [9], over 100 µM; in assay [10] it was 71.5 µM.
For `Cn1nccc1Nc1nccc(-c2ccn([C@H](CO)c3ccc(Cl)c(F)c3)c(=O)c2)n1`, the GI50 in assay [1] was 3160 nM; in assay [2], 6.56 µM; in assay [3], 27.4 µM; in assay [4], 5960 nM; in assay [5] it was 170 nM; in [6] it was 34.3 µM. For the same compound, the GI50 was 22.9 µM in [7], 4.47 µM in assay [8], 27.6 µM in [9] and 2240 nM in [10]. The TGI in assay [1], in assay [2], in assay [3], in [4], in assay [5] and in assay [6] was over 100 µM throughout. The TGI in assay [7] is over 100 µM; in [8], over 100 µM; in assay [9], over 100 µM; in assay [10], 6.91 µM.
Regarding `O=C(OCc1ccc2c(Br)cc(Br)c(O)c2n1)c1cc2ccccc2[nH]1`, the GI50 is 709 nM in [1]; 0.829 µM in assay [2]; 0.434 µM in [3]; 963 nM in [4]; 408 nM in assay [5]; 0.505 µM in assay [6]. Moreover, the GI50 is 0.66 µM in [7], 1.44 µM in assay [8], 1.8 µM in [9] and 962 nM in assay [10]. In addition, the TGI stood at 2.08 µM in [1]; 2.82 µM in assay [2]; 2.07 µM in assay [3]; 2.44 µM in [4]; 1.59 µM in [5]; 1.86 µM in assay [6]. Also, the TGI was 1.91 µM in [7], 3.14 µM in assay [8], 4.09 µM in [9] and 2.17 µM in [10].
Turning to `Cc1ccc2c(-c3ccnc(Nc4ccc5c(c4)OCCO5)n3)c(-c3ccc(C(F)(F)F)cc3)nn2n1`, the GI50 in assay [1] is 17200 nM; in assay [2], 8.48 µM; in assay [3] it was 5.66 µM; in assay [4], 1250 nM; in assay [5], 4420 nM; in assay [6], 1.42 µM. In addition, the GI50 is 2.76 µM in assay [7], 14.3 µM in assay [8], over 25 µM in [9] and over 18700 nM in assay [10]. In addition, the TGI in [1], in [2], in [3], in assay [4], in assay [5] and in assay [6] was over 25 µM throughout. The TGI in assay [7], in [8], in [9] and in [10] was over 25 µM throughout.
`COC(=O)OC1C(O[C@H]2C[C@H]3[C@@H]4CC=C5C[C@@H](O)CC[C@]5(C)[C@H]4CC[C@]3(C)[C@H]2[C@H](C)C(=O)CCC(C)C)OCC(O)C1OC1OCC(O)C(O)C1OC(=O)c1ccc(OC)cc1` (stereo partly specified): the GI50 was 8.74 nM in assay [1]; 3.17 µM in assay [2]; 0.0108 µM in assay [3]; 82 nM in assay [4]; 41.5 nM in assay [5]; 0.0191 µM in assay [6]. In addition, the GI50 was 0.0106 µM in [7], 0.138 µM in assay [8], 0.0155 µM in assay [9] and under 2.75 nM in assay [10]. Further, the TGI in assay [1] was 0.0868 µM; in assay [2] it was over 27.5 µM; in [3], 0.545 µM; in assay [4] it was 4.46 µM; in assay [5], over 27.5 µM; in assay [6] it was 0.447 µM. Moreover, the TGI is over 27.5 µM in assay [7], 5.94 µM in [8], 2.24 µM in [9] and 0.0091 µM in assay [10].
As for `Cn1c([N+](=O)[O-])cnc1C=C1C(=O)c2ccccc2C1=O`, the GI50 in assay [1] was 2670 nM; in assay [2], 2.18 µM; in assay [3] it was 3.44 µM; in assay [4], 2720 nM; in [5], 7290 nM; in assay [6] it was 3.56 µM. Also, the GI50 in assay [7] was 3.56 µM; in [8] it was 4.9 µM; in assay [9], 15.1 µM; in [10], 2600 nM. Further, the TGI in assay [1] was 11.7 µM; in [2], 6.54 µM; in assay [3], 16.2 µM; in [4] it was 10.1 µM; in [5], 25.3 µM; in assay [6] it was 14.2 µM. In addition, the TGI amounted to 18.5 µM in assay [7], 20.5 µM in [8], 44.5 µM in assay [9] and 7.51 µM in assay [10].

These data come from PubChem BioAssay (NCI).
